Measurements published in patent publication US20140051665A1, “PROSTATE CANCER THERAPY WITH HSP90 INHIBITORY COMPOUNDS” (SYNTA PHARMACEUTICALS CORP., priority 2011, published 2014).
Read-outs that look alike come from different tables or passages of the source. Blank lines part the entries; values can stand above or below the compound they belong to.

Tests used:
[1] = tested on: PC3 cells; experiment: Combination of AZD-7762 with ganetespib, killing of PC3 cells; type: cell-based, human
[2] = tested on: DU-145 prostate carcinoma cells; experiment: alamarBlue cell viability assay, single agents and docetaxel combination; details: DU-145 cells, 72 hr
[3] = tested on: DU145 cells (EGFR, STAT3, IGF-IR); experiment: Western blot of Hsp90 client proteins, DU145; type: cell-based, human; details: for exposure required for significant reductions in p-EGFR expression: DU145
Description: (§1) Prostate cancer cell lines were lysed in RIPA buffer (Cell Signaling Technology, Beverly, Mass. USA) and HeLa lysed by four rounds of freeze/thawing using 1× Reporter Lysis Buffer (Promega, Madison, Wis., USA) containing 0.4 M NaCl. Lysates were clarified by centrifugation and equal amounts of protein resolved by SDSPAGE before transfer to nitrocellulose membranes. Membranes were blocked with 5% skim milk in TBS with 0.5% Tween and immunoblotted with indicated antibodies. Antigen-antibody complexes were visualized using an Odyssey system (LI-COR, Lincoln, Nebr., USA).

[4] = tested on: DU145 cells; experiment: Annexin V apoptosis assay by flow cytometry; type: cell-based, human; details: DU145, 24 h, escalating doses
Protocol: (§2) For cell cycle analysis, PC3 and DU145 cells were seeded overnight at 0.3×10^6 cells/5 mL in a 6-well plate and then exposed to increasing concentrations of ganetespib (0-500 nM) for 24 h. Cells were harvested and stained with propidium iodide using the BD Cycle TEST PLUS Reagent Kit (BD Biosciences, San Jose, Calif., USA) according to the manufacturer's instructions. Twenty thousand cells were analyzed for their DNA content using a FACS Caliber cytometer (BD Biosciences, Billerica, Mass., USA). For the apoptosis assay in the DU145 cell line, cells were treated with ganetespib (10, 100 or 500 nM), 17-AAG (500 or 1000 nM) or control (DMSO) for 24 h. Following treatment cells were harvested and stained using a fluorescein-conjugated anti-Annexin V antibody (BD Biosciences) and apoptosis assessed by flow cytometry.

[5] = tested on: PC3 cells; experiment: CellTiter-Glo cell viability assay, PC3; details: read-out: cytotoxicity IC50
[6] = tested on: VCaP cells; experiment: CellTiter-Glo cell viability assay, VCaP
[7] = tested on: LNCaP cells; experiment: CellTiter-Glo cell viability assay, LNCaP
[8] = tested on: 22Rv1 cells; experiment: CellTiter-Glo cell viability assay, 22Rv1; details: read-out: cytotoxicity IC50, 22Rv1, 72 h
[9] = tested on: DU145 cells; experiment: CellTiter-Glo cell viability assay, DU145; details: read-out: cytotoxicity IC50
[10] = tested on: PC3 tumor xenografts; experiment: In vivo prostate xenograft model; details: for % T/C: PC3 xenografts in nude mice, i.v.
[11] = tested on: PCa cell lines (LNCaP, 22Rv1, PC-3, DU-145); experiment: Summary of potency in PCa cell line panel versus 17-AAG; type: cell-based, human
[12] = tested on: LNCaP cells (AR, p-AKT/AKT, CDK1); experiment: Western blot of Hsp90 client proteins, LNCaP; type: cell-based, human
Description: as §1

[13] = tested on: AR-specific transcriptional activity in LNCaP cells; experiment: Quantitative RT-PCR of AR-directed genes PSA and TMPRSS2; type: cell-based, human; details: 250 nM ganetespib or 1 μM geldanamycin, 24 h, 10 nM R1881
Protocol: LNCaP cells were cultured in charcoal-stripped medium for 24 h and then treated with 250 nM ganetespib, 1 μM geldanamycin, or vehicle for 24 h in the absence or presence of 10 nM methyltrienolone (R1881). RNA was prepared from the LNCaP cells post-treatment using TRIzol reagent (Invitrogen, Grand Island, N.Y., USA). Previously reported prostate specific antigen (PSA), transmembrane protease, serine 2 (TMPRSS2), and 18S primer sets were used for target gene expression and were analyzed using SYBR green PCR Master mix in an ABI 7500 Fast sequence detection system. See, e.g., Agoulnik et al (2006), Androgens modulate expression of transcription intermediary factor 2, an androgen receptor coactivator whose expression level correlates with early biochemical recurrence in prostate cancer. Cancer Res 66 10594-10602. PSA and TMPRSS2 mRNA levels were normalized to 18S mRNA values.

[14] = tested on: 22Rv1 cells (full-length AR, p-AKT/AKT, PARP); experiment: Western blot, 22Rv1; type: cell-based, human; details: 22Rv1, 24 h
Description: as §1

[15] = tested on: full length AR; experiment: Expression of transfected full length AR in HeLa, immunoblot; type: cell-based; details: 24 h, GA or 250 nM ganetespib, 10 nM R1881
[16] = tested on: full-length AR activity; experiment: GRE-luciferase reporter assay in HeLa, full-length AR; type: cell-based
[17] = tested on: DU145 cells; experiment: Cell cycle analysis by flow cytometry, DU145; type: cell-based, human; details: DU145, 0-500 nM, 24 h
Protocol: as §2

[18] = tested on: PC3 cells; experiment: Cell cycle analysis by flow cytometry, PC3; type: cell-based, human; details: PC3, 0-500 nM, 24 h
Protocol: as §2

[19] = tested on: PC3 cells (IGF-1R); experiment: Western blot of Hsp90 client proteins, PC3; type: cell-based, human
Description: as §1

[20] = tested on: V7 truncated AR isoform; experiment: Expression of transfected V7 truncated AR in HeLa, immunoblot; type: cell-based; details: 24 h, 1 mM GA or 250 nM ganetespib
[21] = tested on: constitutive V7 activity; experiment: GRE-luciferase reporter assay in HeLa, V7 variant; type: cell-based
Description: HeLa cells were transiently transfected using a poly-L-lysine coupled adenoviral-mediated DNA transfer technique as previously described. See, e.g., Nazareth et al (1996), Activation of the human androgen receptor through a protein kinase A signaling pathway. J Biol Chem 271 19900-19907. The plasmid constructs used were pCR3.1-AR (encoding for full length AR) and pCR3.1-V7 (encoding for the V7 truncated AR isoform and which was a gift from Manjula Nakka and William Krause, Baylor College of Medicine). For the expression study, HeLa cells were transfected with 3 ng of pCR3.1-AR or 0.5 ng of pCR3.1-V7 for 24 h. Cells were treated with R1881 (10 nM), GA (1 μM), and/or STA9090 (250 nM) or vehicle (ethanol and DMSO) for 24 hours prior to lysis and immunoblotting. To determine the effect of Hsp90 inhibitors on AR and variant activity, HeLa cells were transiently transfected with 250 ng of GRE-luciferase reporter, 30 ng of pCR3.1 β-galactosidase, 3 ng of pCR3.1-AR, or 0.03 ng of pCR3.1-V7 and treated as above. Luciferase and β-galactosidase activities were measured and luciferase levels normalized to β-galactosidase levels as described previously. See, e.g., Agoulnik et al (2003), Repressors of androgen and progesterone receptor action. J Biol Chem 278 31136-31148.

[22] = weekly dosing regimen; cited from earlier work
[23] = read-out: cytotoxicity IC50, 72 h
[24] = Homo sapiens, 72 h, read-out: cytotoxicity IC50

Structure (SMILES): NC(=O)Nc1cc(-c2cccc(F)c2)sc1C(=O)N[C@H]1CCCNC1 [AZD-7762]
combination effect with ganetespib in killing cells [1]: in synergy with ganetespib

IC50 [2]: 0.001 µM
Structure (SMILES): CC(=O)O[C@@]12CO[C@@H]1C[C@H](O)[C@@]1(C)C(=O)[C@H](O)C3=C(C)[C@@H](OC(=O)[C@H](O)[C@@H](NC(=O)OC(C)(C)C)c4ccccc4)C[C@@](O)([C@@H](OC(=O)c4ccccc4)[C@H]21)C3(C)C [docetaxel, reference compound]

Structure (SMILES): C=CCNC1=C2C[C@@H](C)C[C@H](OC)[C@H](O)[C@@H](C)/C=C(\C)[C@H](OC(N)=O)[C@@H](OC)/C=C\C=C(/C)C(=O)NC(=CC1=O)C2=O [Compound 17-AAG, 17-AAG, reference compound]
exposure required for significant reductions in p-EGFR expression [3]: 18 h
apoptotic cells, Annexin V staining [4]: comparable proportion of apoptotic cells
IC50 ([5]; PC3, 72 h): 0.246 µM
IC50 [6, 23]: 2.65 µM
IC50 [7, 23]: 0.265 µM
IC50 [8]: 1.27 µM
IC50 ([9]; DU145, 72 h): 0.036 µM

Structure (SMILES): CC(C)c1cc(-c2nnc(O)n2-c2ccc3c(ccn3C)c2)c(O)cc1O [Ganetespib, 3-(2,4-dihydroxy-5-isopropyl-phenyl)-4-(1-methyl-indol-5-yl)-5-hydroxy-[1,2,4] triazole]
tolerability of the regimen ([10]; 150 mg/kg weekly, nude mice): well tolerated
% T/C ([10]; once a week at 150 mg/kg for 4 weeks): 17%
% T/C ([10]; twice a week at 50 mg/kg for 4 weeks): 3%
IC50 fold less than 17-AAG [11]: 3-7 fold
time of destabilization of p-AKT/AKT ([12]; 100 nM): 18 h
time of loss of total and phosphorylated CDK1 ([12]; 100 nM): ≤ 24 h
time to measurable reduction in AR expression ([12]; 100 nM): ≤ 3 h
AR levels ([12]; 24 h, Western blot): potent and dose-dependent decrease
R1881 induction of PSA and TMPRSS2 mRNA [13]: significantly inhibited
dose sufficient to induce degradation of full-length AR, destabilization of p-AKT/AKT and apoptosis (cleaved PARP) [14]: ≤ 25 nM
androgen-increased full-length AR expression [15]: completely abrogated
full-length AR activity, luciferase assay [16]: strongly inhibited
exposure required for significant reductions in p-EGFR expression [3]: 18 h
STAT3 signaling ([3]; DU145, 24 h, Western blot): completely abrogated
apoptotic cells, Annexin V staining [4]: dose-dependent increase in apoptotic cells
cell cycle distribution [17]: dose-dependent accumulation of cells in the G2/M phase
cell cycle distribution [18]: dose-dependent accumulation of cells in the G2/M phase
time by which IGF-1R levels were reduced [19]: ≤ 6 h
expression of the variant (V7) receptor [20]: neither inhibitor significantly altered expression
constitutive V7 activity, luciferase assay [21]: less effective
highest non-severely toxic dose (HNSTD) [22]: 150 mg/kg
IC50 ([5]; Homo sapiens, PC-3, 72 h): 0.077 µM
IC50 [6, 24]: 0.007 µM
IC50 [7, 24]: 0.008 µM
IC50 ([8]; Homo sapiens): 0.002 µM
IC50 ([9]; Homo sapiens, DU-145, 72 h): 0.012 µM
IC50 [2]: 0.014 µM
